Laboratory results taken from PMC3366986, “On the Mechanism of Action of SJ-172550 in Inhibiting the Interaction of MDM4 and p53” (PLoS ONE, 2012).
Values after ≈ are worked out from the molar mass of the structure shown. Each block holds one molecule with its values, some of them ahead of it.

What was measured:
[1] = target: T1, hMDMX (GST-tagged, a.a. 1–185) (Homo sapiens, UniProt O15151); assay: fluorescence polarization competition assay, MDMX-p53 peptide binding; conditions: for IC50: Figure 3, read-out: IC50, inhibition of MDMX-p53 peptide binding
T1 construct: hMDMX (GST-tagged, a.a. 1–185); made in house; host or cells: E. coli BL21(DE3)
T1 sequence (O15151 1-185): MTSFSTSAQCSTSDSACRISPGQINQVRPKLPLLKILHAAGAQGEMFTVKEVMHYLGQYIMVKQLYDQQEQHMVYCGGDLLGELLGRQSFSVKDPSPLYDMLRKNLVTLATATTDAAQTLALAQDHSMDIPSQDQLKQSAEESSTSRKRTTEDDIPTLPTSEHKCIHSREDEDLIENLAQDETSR
Method: All fluorescence polarization assays were performed in binding buffer (10 mM Tris, pH 8.0, 170 mM NaCl, 0.05% Tween-20) unless otherwise noted. For competition assays a master mix of 15 nM Texas red-labeled (N-terminal label) P53 Peptide (sequence: […]) with 1 µM hMDMX (GST-tagged, a.a. 1–185) was prepared and 20 µl was added to black polystyrene 384 well plates (Corning #3573). DMSO stock solutions of test compounds were then added by pin transfer (V&P scientific) in nano-liter volumes (maximum final DMSO percentage = 1%). The assay mixture was incubated at room temperature for one hour and read on an EnVision multi-label plate reader using a 555 nm excitation filter, a 632 nm emission filter, and a Texas Red FP dichroic mirror. Binding inhibition curves and IC50 values were determined by fitting observed mP values to a 4-parameter sigmoidal binding curve using PRISM 5.0 (GraphPad Software, Inc.).

[2] = target: T2, MDMX (23–111) (Homo sapiens, UniProt O15151); assay: thermal stability of MDMX by hydrophobic dye binding (thermal shift); conditions: for effect of reducing agent used alone on thermal stability of MDMX: without compound 1
T2 construct: Thermal shift data for MDMX (23–111) showing a 7 degree stabilization; made in house; host or cells: E. coli BL21(DE3)
T2 sequence (O15151 23-111): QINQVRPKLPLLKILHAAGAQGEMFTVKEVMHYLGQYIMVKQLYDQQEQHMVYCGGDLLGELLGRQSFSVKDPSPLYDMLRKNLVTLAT
Method: The ITD measurements were performed with a RT-PCR instrument (Applied Biosystems 7900HT) equipped with a 384-well probe using SYBR detection (excitation 495/emission 537). The program used started at 45°C and the temperature increased at a rate of 1 degree per minute. […] The final volume was 20 µl for each well using 384 ABI PRISM™ plates (Applied Biosystems). The data was exported and evaluated using a custom data processing algorithm coded in Pipeline Pilot (Scitegic). Apparent melting temperatures were calculated by measuring the temperature at which the observed fluorescence signal was halfway between the baseline and the maximum. Binding curves were determined by graphing observed apparent melting temperature as a function of test compound concentrations. These curves were then fit to a four parameter sigmoidal dose response model using PRISM 5.0 (GraphPad Software, Inc.).

[3] = solubility assay (µSOL Evolution, pION); format: physicochemical; conditions: system solution buffer (SSB, pION), pH 7.4, aqueous buffer, kinetic from dmso stock
Method: Solubility assay was carried out on Biomek FX lab automation workstation (Beckman Coulter, Inc., Fullerton, CA) using µSOL Evolution software (pION Inc., Woburn, MA). The detailed method is described as following. 10 µL of 10 mM compound stock (in DMSO) was added to 190 µL 1-propanol to make a reference stock plate. 5 µL from this reference stock plate was mixed with 70 µL 1-propanol and 75 µL SSB (system solution buffer, pH adjusted to 7.4, pION Inc., Woburn, MA) to make the reference plate, and the UV spectrum (250 nm –500 nm) of the reference plate was read. 6 µL of 10 mM test compound stock was added to 594 µL SSB in a 96-well storage plate and mixed. The storage plate was sealed and incubated at room temperature for 18 hours. The suspension was then filtered through a 96-well filter plate (pION Inc., Woburn, MA). 75 µL filtrate was mixed with 75 µL 1-propanol to make the sample plate, and the UV spectrum of the sample plate was read. Calculation was carried out by µSOL Evolution software based on the AUC (area under curve) of UV spectrum of the sample plate and the reference plate. All compounds were tested in triplicates.

[4] = target: T3, hMDM2(18–125)C77V (Homo sapiens, UniProt Q00987, C77V); assay: inhibition of p53 peptide binding to MDM2 cysteine mutant; conditions: hMDM2(18–125)C77V relative to MDM2; Figure S6
T3 construct: a mutant of MDM2 protein (hMDM2(18–125)C77V) lacking the cysteine
T3 sequence (Q00987 18-125 C77V): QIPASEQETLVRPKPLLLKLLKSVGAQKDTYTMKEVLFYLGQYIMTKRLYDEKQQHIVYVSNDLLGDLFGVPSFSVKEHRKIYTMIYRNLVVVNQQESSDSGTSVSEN

[5] = target: T4, hMDMX (aa 23–111) (Homo sapiens, UniProt O15151); assay: SPR binding of compound 1 to immobilized hMDMX; conditions: 100 µM
T4 construct: hMDMX (23–111) was immobilized to the SPR chips using a biotin tag; made in house
T4 sequence (O15151 23-111): T2 sequence (O15151 23-111)
Method: Binding studies were performed at 25°C using a Biacore T100 (GE Healthcare) surface plasmon resonance (SPR) instrument. Either streptavidin or NeutrAvidin (Thermo Scientific) was immobilized on a carboxymethyldextran-coated gold surface (CM5 chip; GE Healthcare) by standard amine coupling methods. The carboxymethyl groups of dextran were activated with N-ethyl-N ´-(3-dimethylaminopropyl) carbodiimide (EDC) and N-hydroxysuccinimide (NHS). For peptide experiments, streptavidin was attached at pH 4.5 in 10 mM sodium acetate to levels of ∼3000 RU per flow cell. For small molecule experiments, NeutrAvidin was attached at pH 5.0 in 10 mM sodium acetate to levels of ∼11000–12000 RU per flow cell. Any remaining reactive sites were blocked by reaction with ethanolamine. Biotin-MDM4 was captured on the chip by injection over the streptavidin or NeutrAvidin surface.
For peptide binding experiments, p53wt peptide was prepared as a 3-fold serial dilution in peptide binding buffer (20 mM Bis-Tris pH 6.5, 200 mM NaCl, 0.1 mg/mL bovine serum albumin, 0.005% Tween20, +/−1 mM TCEP). The peptide was injected in triplicate at each concentration at a flow rate of 75 µL/min. […] Equilibrium dissociation constants (K d) for peptide binding were determined by equilibrium affinity analysis with a 1∶1 binding model using Scrubber2.

[6] = target: T5, GST-hMDMX (Homo sapiens, UniProt O15151); assay: mass spectrometry of covalent adducts, GST-tagged hMDMX
T5 construct: made in house; host or cells: E. coli BL21(DE3)
T5 sequence (O15151 1-185): T1 sequence (O15151 1-185)
Method: (§1) Samples were prepared in binding buffer (10 mM Tris, pH 8.0, 170 mM NaCl) with a 50 µl final volume. Samples were incubated at room temperature for 1.5 hours after which they were stored overnight at 4°C before analysis by mass spectrometry. Samples containing 1 µM hMDMX constructs were concentrated to 20 µM using 3000 MWCO centrifugal protein concentrators (Vivascience, Inc.) immediately prior to analysis. Prior to injection all samples were desalted using a reverse phase C8 Zip Tip (Millipore) and eluted in 50% acetonitrile, 2% formic acid. The samples were ionized by static nanospray using EconoTips (New Objective) on a Waters LCT Premier XE mass spectrometer using positive mode. The resultant charge envelope was deconvoluted using MaxEnt 1 algorithm of MassLynx V 4.0 sp 4 software. A mass error of 1Da for every 10,000 Da is permissible using this mass spectrometer.

[7] = target: T6, hMDMX (untagged aa 23 to 111 construct) (Homo sapiens, UniProt O15151); assay: mass spectrometry of covalent adducts, untagged hMDMX
T6 construct: hMDMX (untagged aa 23 to 111 construct); His-tag (cleaved yes); made in house; host or cells: E. coli BL21(DE3)
T6 sequence (O15151 23-111): T2 sequence (O15151 23-111)
Method: as §1

[8] = target: Mdm2 (Homo sapiens, UniProt Q00987); assay: fluorescence polarization p53 peptide exclusion assay, Mdm2; format: binding; conditions: ND = compound does not noticeably block interaction with p53 peptide
Mdm2, sequence (Q00987 whole entry): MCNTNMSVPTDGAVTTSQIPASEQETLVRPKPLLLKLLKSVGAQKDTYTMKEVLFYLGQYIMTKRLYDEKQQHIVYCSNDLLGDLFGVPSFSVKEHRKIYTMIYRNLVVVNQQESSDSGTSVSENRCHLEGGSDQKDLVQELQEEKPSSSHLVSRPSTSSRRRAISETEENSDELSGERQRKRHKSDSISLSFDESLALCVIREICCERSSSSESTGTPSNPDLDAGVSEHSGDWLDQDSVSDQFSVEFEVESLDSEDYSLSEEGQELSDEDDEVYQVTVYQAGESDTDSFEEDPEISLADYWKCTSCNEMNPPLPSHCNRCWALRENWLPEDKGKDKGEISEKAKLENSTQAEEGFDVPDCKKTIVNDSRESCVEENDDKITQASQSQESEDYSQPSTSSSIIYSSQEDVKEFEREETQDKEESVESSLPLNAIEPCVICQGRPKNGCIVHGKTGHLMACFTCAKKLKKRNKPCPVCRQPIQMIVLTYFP
From the text: (§2) the α,β-unsaturated amide towards Mdm2 and Mdmx as determined using fluorescence
(§3) polarization p53 peptide exclusion assay. Compound core according to J. Biol. Chem. 2010;
(§4) 285: 10786 is marked in blue.
(§5) Compound Chemical formula Compound code Mdm2 MdmX […]

[9] = target: T7, MDMX (Homo sapiens, UniProt O15151); assay: fluorescence polarization p53 peptide exclusion assay, Mdmx; format: binding; conditions: ND = compound does not noticeably block interaction with p53 peptide
T7 sequence (O15151 1-490): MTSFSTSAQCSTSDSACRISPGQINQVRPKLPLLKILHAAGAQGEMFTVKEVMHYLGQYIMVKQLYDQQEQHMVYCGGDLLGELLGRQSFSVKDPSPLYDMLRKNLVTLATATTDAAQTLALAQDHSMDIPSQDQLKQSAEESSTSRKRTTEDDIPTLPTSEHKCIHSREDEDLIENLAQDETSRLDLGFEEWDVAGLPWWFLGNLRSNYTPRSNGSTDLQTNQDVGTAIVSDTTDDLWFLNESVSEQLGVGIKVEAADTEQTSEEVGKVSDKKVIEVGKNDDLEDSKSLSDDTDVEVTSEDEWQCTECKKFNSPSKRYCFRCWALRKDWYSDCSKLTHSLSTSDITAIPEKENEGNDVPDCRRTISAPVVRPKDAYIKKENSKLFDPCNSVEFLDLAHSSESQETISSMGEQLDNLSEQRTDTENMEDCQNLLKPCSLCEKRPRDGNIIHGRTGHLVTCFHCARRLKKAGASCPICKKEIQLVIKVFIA
From the text: as §2, §3, §4, §5

[10] = target: C77A mutant of MDM2 (Homo sapiens, UniProt Q00987, C77A); assay: covalent labelling of MDM2 C77A mutant; conditions: C77A mutation; Figure S6
C77A mutant of MDM2, sequence (Q00987 whole entry C77A): as the sequence (Q00987 whole entry) above, with C77A counted along it

[11] = target: T7, MDMX; parameters: method as in PMID 20080970; conditions: inhibition of the MDMX-p53 interaction; read-out: EC50, competition for wild type p53 peptide binding to MDMX; cited from earlier work
[12] = system: retinoblastoma cells; parameters: method as in PMID 20080970; conditions: cited from earlier work

SMILES: O=C(O)c1cc(SSc2ccc([N+](=O)[O-])c(C(=O)O)c2)ccc1[N+](=O)[O-] [DTNB, reference compound]
ability of treated MDMX to bind p53 peptide ([1]; MDMX treated with Ellman's reagent, Figure S3): unable to bind p53 peptide
effect on melting point of MDMX ([2]; MDMX treated with Ellman's reagent, Figure S4): partially stabilized

SMILES: O[C@@H](CS)[C@@H](O)CS [DTT]
effect of reducing agent used alone on thermal stability of MDMX [2]: no apparent effect

SMILES: O=C(O)CCP(CCC(=O)O)CCC(=O)O [TCEP]
effect of reducing agent used alone on thermal stability of MDMX [2]: destabilized the protein at high concentrations

Continued, in another order:

solubility at 18 h [3]: 12 µM (≈ 5.15 µg/mL)
IC50 [1]: 3 µM
reduction of potency after reaction with glutathione in situ ([1]; Figure S5, efficacy not completely removed): 10 fold
weaker potency on cysteine-lacking mutant than on MDM2 [4]: 10 fold
stabilization of the protein's melting point ([2]; addition of compound 1): 7 degree
EC50 ([2]; minimal time dependency (5 min vs 1 h), read-out: apparent EC50 of melting point stabilization): ~1 µM
time to return to baseline after the pulse (off rate) ([5]; non-reducing conditions): ~5 min
SPR binding ([5]; reducing conditions (TCEP)): no binding was observed
covalent adduct formation (mass spectrum) ([6]; 1 µM GST-hMDMX, 5 µM compound): no alkylation events
covalent adduct formation (mass spectrum) ([6]; 20 µM GST-hMDMX, 100 µM compound): multiple alkylation events
covalent adduct formation (mass spectrum) ([7]; 1 µM hMDMX, 5 µM compound): no alkylation
covalent adduct formation (mass spectrum) ([7]; 20 µM hMDMX, 100 µM compound): partial alkylation
Ki [8]: 5.21 µM
Ki [9]: 8.07 µM
ability to covalently label MDM2 [10]: abolishes
SMILES: CCOc1cc(/C=C2\C(=O)N(c3ccccc3)N=C2C)cc(Cl)c1OCC(=O)OC [compound 1]
EC50 [11]: ~5 µM
p53 dependent cell death of retinoblastoma cells [12]: caused p53 dependent cell death of retinoblastoma cells

IC50 [1]: > 100 µM
reduction of inhibitory potency by saturation of the ene-amide group ([1]; compound 2 relative to compound 1): roughly 30 fold
SMILES: CCOc1cc(CC2C(=O)N(c3ccccc3)N=C2C)cc(Cl)c1OCC(=O)OC (centres unmarked) [compound 2]
